Earlier results as cited in patent publication US8153109B2, “Alkylene carbonate dilution, alkylene carbonate for preparing the dilution, and aqueous reducing chemical agent” (San-Ei Kagaku Co., Ltd., priority 2006, dated 2012).

Settings: test day 10, emulsified chemical agent, in some cases

SMILES: O=C1OCCC1S (stereo not shown) [2-mercapto-4-butyrolactone]
- percent decomposition of 2-mercapto-4-butyrolactone: about 30%
